Measured values from paper PMC7288168, “Synthesis and Cytotoxic Activity of Chiral Sulfonamides Based on the 2-Azabicycloalkane Skeleton” (Molecules, 2020).

How the values were obtained:
HUVEC cells [1] = test: Cell viability assay MTT/CellTiter Blue, HUVEC (Table 2); format: cell-based; details: Table 2, nonmalignant primary cells, 24 h, assay as for D425
Procedure: (§1) The human hepatocellular carcinoma (HCC) cell line HUH7 was purchased from ATCC (LGC standards GmbH, Wesel, Germany). The Austrian human HCC cell line AKH12 has been well characterized and was kindly provided by Prof. Bettina Grasl-Kraupp. HUH7 cells were cultured in Dulbecco’s modified Eagle’s medium (Thermo Fisher Scientific, Waltham, MA, USA) containing 10% heat-inactivated fetal bovine serum (FBS) (Sigma-Aldrich, St. Louis, MO, USA), 1% penicillin-streptomycin (10,000 U/mL) (Thermo Fisher Scientific, Waltham, MA, USA), and 1% minimum essential medium nonessential amino acids (100x) (Thermo Fisher Scientific, Waltham, MA, USA). AKH12 cells were cultured in RPMI1640 medium (Sigma-Aldrich, St. Louis, MO, USA) containing 10% heat-inactivated FBS. DAOY and D283Med (short D283) medulloblastoma (MB) cells were purchased from ATCC (LGC standards GmbH, Wesel, Germany). D425Med (short D425) and UW228-2 were provided by Thomas Ströbel from the Institute of Neurology Medical University of Vienna. The cells were cultured in Dulbecco’s modified Eagle’s medium (Sigma-Aldrich, St. Louis, MO, USA) containing 10% FBS (Sigma-Aldrich, St. Louis, MO, USA), 2% L-Glutamine (Sigma-Aldrich, St. Louis, MO, USA), and 0.2% Normocin (Sigma-Aldrich, St. Louis, MO, USA). U-251 MG (short U251) glioblastoma (GBM) cell line was purchased from Sigma-Aldrich and cultured in Dulbecco’s modified Eagle’s medium (Sigma-Aldrich, St. Louis, MO, USA) containing 10% FBS (Sigma-Aldrich, St. Louis, MO, USA), 2% L-Glutamine (Sigma-Aldrich, St. Louis, MO, USA), and 0.2% Normocin (Sigma-Aldrich, St. Louis, Missouri, USA). Human umbilical vein endothelial cells (HUVECs) were provided by Brigitte Winter from the Department of Surgery Medical University of Vienna and were grown in endothelial cell growth medium-2 BulletKitTM (Lonza, Basel, Switzerland) under standard tissue culture conditions. All cells were incubated at 37 °C in a 5% CO2 atmosphere and regularly checked for mycoplasma contamination.
(§2) LD50 was defined as the amount of a toxic agent required to eliminate 50% of the cell population. The LD50 was calculated in each experiment from the respective dose–response curve. All experiments were performed in triplicate wells.
(§3) One day before treatment, 2 × 10^4 of D425Med or HUVEC cells were seeded into 24-well plates and incubated at 37 °C in a humidified atmosphere containing 5% CO2.The cells were treated with different compounds for 24 h. A […] assay using the CellTiter Blue reagent (Promega, Fitchburg, Wisconsin, USA) was performed according to the manufacturer’s protocol. Experiments were performed in triplicate and repeated three times. The percentage of survival was calculated as the ratio using DMSO-treated (indicated as 0 µM concentration) cells as 100% control.

D283 cells = test: Neutral red cell viability assay, D283; format: cell-based, human; details: for reduction of cell viability, D283: 50 µM, 24 h, first screening; for IC50: Homo sapiens, D283, 24 h treatment, read-out: LD50 D283 (MB)
Procedure: as §1
(§4) Cell viability was determined using a neutral red assay, as previously described. The cells were placed in 24-well plates and grown to reach 70–80% confluency prior to treatment. After treatment for 24 h, cells were incubated with neutral red at a concentration of 50 µg/mL in serum-free medium for 2 h at 37 °C. Cells were then washed 2x and incubated with 1% acetic acid in 70% ethanol. The dye concentration was measured photometrically at 562 nm. The percentage of survival was calculated considering DMSO-treated (indicated as 0 µM concentration) cells as 100% control.
as §2

DAOY cells = test: Neutral red cell viability assay, DAOY; format: cell-based, human; details: for reduction of cell viability, DAOY: 50 µM, 24 h, first screening; for IC50: Homo sapiens, Daoy, 24 h treatment, neutral red, read-out: LD50 DAOY (MB)
Procedure: as §1, §4, §2

D425 cells = test: Cell viability assay (suspension cell line), MTT/CellTiter Blue, D425; format: cell-based, human; details: for reduction of cell viability, D425: 50 µM, 24 h, first screening; for IC50: Homo sapiens, read-out: LD50 D425 (MB); for HUVEC/D425 LD50 Fold Change: ratio of LD50 HUVEC to LD50 D425; for D425 cell viability as compared to HUVEC cells: dose-response 24 h, Student's t-test, p ≤0.05 / p ≤0.01
Procedure: as §1, §2, §3

HUH7 cells = test: Neutral red cell viability assay, HUH7; format: cell-based, human; details: for IC50: Homo sapiens, Huh-7, 24 h treatment, neutral red, read-out: LD50 HUH7 (HCC)
Procedure: as §1, §4, §2

UW228-2 cells = test: Neutral red cell viability assay, UW228-2; format: cell-based, human; details: for reduction of cell viability, UW228-2: 50 µM, 24 h, first screening; for IC50: Homo sapiens, UW228-2, 24 h treatment, neutral red, read-out: LD50 UW228-2 (MB)
Procedure: as §1, §4, §2

HUVEC cells [2] = test: Neutral red cell viability assay, HUVEC (Table 1); format: cell-based; details: Table 1, nonmalignant primary cells, 24 h
Procedure: as §1, §4, §2

U251 cells = test: Neutral red cell viability assay, U251; format: cell-based, human; details: for decrease of cell viability, U251: 50 µM, 24 h, first screening; for IC50: Homo sapiens, U-251, 24 h treatment, neutral red, read-out: LD50 U251 (GBM)
Procedure: as §1, §4, §2

AKH12 cells = test: Neutral red cell viability assay, AKH12; format: cell-based, human; details: for reduction of cell viability, AKH12: 50 µM, 24 h, first screening; for IC50: Homo sapiens, 24 h treatment, neutral red, read-out: LD50 AKH12 (HCC)
Procedure: as §1, §4, §2

[3] = 24 h treatment, suspension cell assay

CC(c1ccccc1)N1CC(NS(=O)(=O)c2ccc(C(F)(F)F)cc2)C2CCC1C2 [Compound 11f, 4-Trifluoromethyl-N-((2-((S)-1-phenylethyl)-(1S,4S,5R)-2-azabicyclo[3.2.1]octan-4-yl)benzenesulfonamide]
LD50 HUVEC (HUVEC cells [1]): 31.52 ± 1.16 µM | reduction of cell viability, D283 (D283 cells): reduced cell viability | IC50 (D283 cells): 29.9 ± 1.5 µM | reduction of cell viability, DAOY (DAOY cells): reduced cell viability | IC50 (DAOY cells): 17.3 ± 0.99 µM | reduction of cell viability, D425 (D425 cells): reduced cell viability | IC50 (D425 cells; [3]): 32 ± 1.37 µM | HUVEC/D425 LD50 Fold Change (D425 cells): 0.98 | reduction of cell viability, HUH7 (HUH7 cells; 50 µM, 24 h, first screening): more than 50% | IC50 (HUH7 cells): 42.7 ± 1.98 µM | reduction of cell viability, UW228-2 (UW228-2 cells): reduced cell viability | IC50 (UW228-2 cells): 31.4 ± 2.12 µM | LD50 HUVEC (HUVEC cells [2]): 22.28 ± 1.45 µM | decrease of cell viability, U251 (U251 cells): more than 50% | IC50 (U251 cells): 31.5 ± 2 µM

CC(c1ccccc1)N1C2CCC(C2)C1CN(CC1C2CCC(C2)N1C(C)c1ccccc1)S(=O)(=O)c1ccc(-c2ccccc2)cc1 [Compound 13a, N-Bis-(((1S,3R,4R)-2-((S)-1-phenylethyl)-2-azabicyclo[2.2.1]heptan-3-yl)methyl)-[1,1'-biphenyl]-4-sulfonamide]
LD50 HUVEC (HUVEC cells [1]): 16 ± 0.79 µM | reduction of cell viability, D283 (D283 cells): reduced cell viability | IC50 (D283 cells): 38.4 ± 1.11 µM | reduction of cell viability, DAOY (DAOY cells): reduced cell viability | IC50 (DAOY cells): 19.2 ± 1.37 µM | reduction of cell viability, D425 (D425 cells): reduced cell viability | IC50 (D425 cells; [3]): 30.5 ± 1.86 µM | HUVEC/D425 LD50 Fold Change (D425 cells): 0.52 | reduction of cell viability, AKH12 (AKH12 cells): reduced cell viability below LD50 | IC50 (AKH12 cells): 8 ± 0.28 µM | IC50 (HUH7 cells): 13.9 ± 0.49 µM | reduction of cell viability, UW228-2 (UW228-2 cells): reduced cell viability | IC50 (UW228-2 cells): 25.9 ± 1.98 µM | LD50 HUVEC (HUVEC cells [2]): 12.13 ± 0.26 µM | decrease of cell viability, U251 (U251 cells): more than 50% | IC50 (U251 cells): 27.6 ± 1.04 µM

CC(c1ccccc1)N1C2CCC(C2)C1CNS(=O)(=O)c1cc(C(F)(F)F)cc(C(F)(F)F)c1 [Compound 10g, 3,5-Bis(trifluoromethyl)-N-((2-((S)-1-phenylethyl)-(1S,3R,4R)-2-azabicyclo[2.2.1]heptane-3-yl)benzenesulfonamide]
LD50 HUVEC (HUVEC cells [1]): 17.62 ± 2.98 µM | reduction of cell viability, D283 (D283 cells): reduced cell viability | IC50 (D283 cells): 16 ± 1 µM | reduction of cell viability, DAOY (DAOY cells): reduced cell viability | IC50 (DAOY cells): 19.2 ± 1.42 µM | reduction of cell viability, D425 (D425 cells): reduced cell viability | LD50 D425 (MB) (D425 cells; [3]): 6.61 ± 1.52 µM | IC50 (D425 cells; [3]): 6.61 µM | D425 cell viability as compared to HUVEC cells (D425 cells): significantly reduced D425 cell viability as compared to HUVEC cells | HUVEC/D425 LD50 Fold Change (D425 cells): 2.66 | reduction of cell viability, AKH12 (AKH12 cells): reduced cell viability below LD50 | IC50 (AKH12 cells): 10.2 ± 1.09 µM | IC50 (HUH7 cells): 11.7 ± 1.53 µM | reduction of cell viability, UW228-2 (UW228-2 cells): reduced cell viability | IC50 (UW228-2 cells): 12 ± 0.99 µM | LD50 HUVEC (HUVEC cells [2]): 10.77 ± 0.93 µM | decrease of cell viability, U251 (U251 cells): more than 50% | IC50 (U251 cells): 11.8 ± 1.58 µM

CC(=O)Nc1ccc(S(=O)(=O)N(CCN(CC2C3CCC(C3)N2C(C)c2ccccc2)S(=O)(=O)c2ccc(NC(C)=O)cc2)CC2C3CCC(C3)N2C(C)c2ccccc2)cc1 [Compound 12i, Bis-N,N-(4-(N-(((1S,3R,4R)-2-((S)-1-phenylethyl)-2-azabicyclo[2.2.1]heptan-3-yl)methyl)sulfamoyl)ethyl)phenyl)acetamide]
LD50 HUVEC (HUVEC cells [1]): 8.91 ± 2.11 µM | reduction of cell viability, D283 (D283 cells): reduced cell viability | IC50 (D283 cells): 21.8 ± 1.9 µM | reduction of cell viability, DAOY (DAOY cells): reduced cell viability | IC50 (DAOY cells): 12.9 ± 1.59 µM | reduction of cell viability, D425 (D425 cells): reduced cell viability | IC50 (D425 cells; [3]): 15.6 ± 0.93 µM | HUVEC/D425 LD50 Fold Change (D425 cells): 0.57 | reduction of cell viability, AKH12 (AKH12 cells): reduced cell viability below LD50 | IC50 (AKH12 cells): 5.75 ± 0.47 µM | IC50 (HUH7 cells): 7.75 ± 0.84 µM | reduction of cell viability, UW228-2 (UW228-2 cells): reduced cell viability | IC50 (UW228-2 cells): 28.4 ± 2.11 µM | LD50 HUVEC (HUVEC cells [2]): 3.16 ± 0.15 µM | decrease of cell viability, U251 (U251 cells): more than 50% | IC50 (U251 cells): 15.3 ± 1.59 µM

CC(c1ccccc1)N1C2CCC(C2)C1CNS(=O)(=O)c1ccc(-c2ccccc2)cc1 (centres unmarked) [Compound 10a]
LD50 HUVEC (HUVEC cells [1]): 28 ± 1.86 µM | reduction of cell viability, D283 (D283 cells): reduced cell viability | IC50 (D283 cells): 17.7 ± 1.09 µM | reduction of cell viability, DAOY (DAOY cells): reduced cell viability | IC50 (DAOY cells): 16 ± 1.12 µM | reduction of cell viability, D425 (D425 cells): reduced cell viability | IC50 (D425 cells; [3]): 16.7 ± 2.11 µM | HUVEC/D425 LD50 Fold Change (D425 cells): 1.67 | reduction of cell viability, AKH12 (AKH12 cells): reduced cell viability below LD50 | IC50 (AKH12 cells): 15.5 ± 1.3 µM | IC50 (HUH7 cells): 13.9 ± 1.02 µM | reduction of cell viability, UW228-2 (UW228-2 cells): reduced cell viability | IC50 (UW228-2 cells): 28.8 ± 2.1 µM | LD50 HUVEC (HUVEC cells [2]): 11.58 ± 1.11 µM | decrease of cell viability, U251 (U251 cells): more than 50% | IC50 (U251 cells): 13.5 ± 0.9 µM

Cc1ccc(-c2ccc(S(=O)(=O)NCC3C4CCC(C4)N3C(C)c3ccccc3)cc2)cc1 [Compound 10b, 4-(4-Tolyl)-N-((2-((S)-1-phenylethyl)-(1S,3R,4R)-2-azabicyclo[2.2.1]heptane-3-yl)benzenesulfonamide]
LD50 HUVEC (HUVEC cells [1]): 28.9 ± 2.97 µM | IC50 (D283 cells): 31.3 ± 1.32 µM | IC50 (D425 cells; [3]): 16.4 ± 2.34 µM | D425 cell viability as compared to HUVEC cells (D425 cells): significantly reduced D425 cell viability as compared to HUVEC cells | HUVEC/D425 LD50 Fold Change (D425 cells): 1.76 | reduction of cell viability, AKH12 (AKH12 cells): reduced cell viability below LD50 | IC50 (AKH12 cells): 23.7 ± 1.27 µM | IC50 (HUH7 cells): 21.3 ± 1.23 µM | LD50 HUVEC (HUVEC cells [2]): 12.88 ± 2.13 µM | decrease of cell viability, U251 (U251 cells): more than 50% | IC50 (U251 cells): 20.4 ± 1.58 µM
